These results are taken from patent EP1978972B1, “USE OF ALKYLGLUCOSIDE ESTERS AS BETA-DEFENSIN INDUCERS” (Pierre Fabre Dermo-Cosmétique, priority 2006, dated 2007).

For one experiment, the system named is S. aureus. As to the kind of experiment: Colonisation of skin explant by exogenous S. aureus during 24 h after adhesion step. The note with it: systemic treatment, in words. The experiment is classed as cell-based, Staphylococcus aureus. Here is the method: (§1) Il est par ailleurs possible d'observer la colonisation de l'explant par le germe exogène (S. aureus) après l'étape d'adhésion pendant 24 h. […] L'effet inverse est observé avec le traitement par le TNF-α, cytokine pro-inflammatoire, qui après avoir entraîné une forte chute de l'adhésion de S. aureus (Cf.III.4.2) ne permet pas une limitation de la croissance du germe pathogène sur l'explant et ceci au dépend du germe commensal S. epidermidis.
(§2) La figure 12 annexée illustre la comparaison de la colonisation d'une souche contaminante, S. aureus, avec celle d'une souche commensale, S. epidermis.

The test system of experiment [1] is Staphylococcus epidermidis. As to the kind of experiment: Development of endogenous commensal S. epidermidis on skin explant during 24 h after adhesion step. The following applies: systemic treatment, in words. It counts as cell-based. Here is the method: as §1, §2
In the next experiment the test system is hBD-3. Briefly: Immunohistochemistry of hBD-3 peptide in reconstructed gingival epithelium. The experiment is classed as cell-based, human. The following applies: vs untreated sample, qualitative. Here is the method:
Les échantillons inclus dans la résine Tissue Tek® sont coupés à froid (température de la chambre à -25°C et la température du porte-objet à - 28°C) à l'aide d'un cryostat (Leica CM 3050s, Nussloch). Les cryocoupes d'une épaisseur de 5 µm sont récupérées sur des lames porte-objet prétraitées, puis mises à sécher environ 2 h à température ambiante et stockées à -20°C pour une utilisation ultérieure. Avant de réaliser l'immuno-marquage, les coupes sont fixées à l'acétone à -20°C pendant 10 min, séchées et conservées à -20°C. Lors d'une première étape, les coupes sont hydratées puis incubées avec les anticorps primaires dirigés contre les peptides d'intérêt dilués dans du PBS. Les anticorps primaires utilisés sont les suivants : • Goat Anti-human BD-2 (500-P161G, Peprotech Inc) dilué au 1/50^e • Rabbit Anti-human defensin-3 (AB3478, Chemicon international) dilué au 1/1000^e • Rabbit Anti-human LL37 (G-075-06, Phoenix Pharmaceuticals Inc) dilué au 1/50^e
Pour révéler le complexe Antigène-Anticorps, le kit DAKO LSAB® (DAKO Corporation) est utilisé selon les recommandations du fournisseur. La révélation est réalisée à l'aide d'un substrat de la péroxydase : la 3,3'diaminobenzidine (DAB) (DAKO Corporation). […]

For laurate de butylglucoside [αβ-LBG brut], in the experiment with S. aureus, the “multiplication / croissance du germe pathogène (S. aureus) sur l'explant” value was “ralentit la multiplication du germe pathogène”. The “développement du germe commensal S. epidermidis” value in experiment [1] is listed as “favorise à l'inverse le développement d'un germe commensal endogène”. For the same substance, the “production du peptide hBD-3 par les cellules de l'épithélium gingival reconstruit” value with hBD-3 was “confirmer la production du peptide hBD-3”.
